In ChEMBL document CHEMBL4673236, “Synthesis and biological effect of lysosome-targeting fluorescent anion transporters with enhanced anionophoric activity” (Bioorg Med Chem Lett, 2020):
Active and inactive are the calls of the source. No cut-off for these calls is given here.

How the values were obtained:
HeLa = experiment: Induction of lysosomal alkalization in human HeLa cells assessed as reduction in Cathepsin B activity at 5 uM using MR-(RR2) as substrate preincubated for 5 hrs followed by substrate addition and measured after 1 hr by confocal microscopic analysis; assay type: functional, cell-based; settings: time 6.0 hrs
[1] = Induction of lysosome alkalization in human HeLa cells assessed as pixel intensity ratio of red fluorescence to green fluorescence at 5 uM incubated for 4 hrs by acridine orange staining based confocal microscopic analysis relative to control; assay type: subcellular
[2] = Aniono-phoric activity in egg-yolk L-aphosphatidylcholine vesicle assessed as increase in efflux of chloride ion at 0.5 mol% by electrode technique
[3] = Induction of lysosome alkalization in human HeLa cells incubated for 4 hrs by acridine orange staining based confocal microscopic analysis; assay type: subcellular; settings: dose 1.5-5 µM
[4] = Aniono-phoric activity in egg-yolk L-aphosphatidylcholine vesicle assessed as increase in efflux of chloride ion by pH discharge experiment
[5] = Induction of lysosome alkalization in human HeLa cells assessed as increase in lysosomal pH incubated for 4 hrs by LysoSensor Green […] staining based confocal microscopic analysis; assay type: subcellular; settings: dose 1.5-5 µM
[6] = Drug localization in lysosome of human HeLa cells at 20 uM incubated for 6 hrs by confocal microscopic analysis; assay type: ADME, subcellular

Row | Ratio [1] | Activity [2] | Activity [3] | EC50 [4] | Activity [5] | Drug uptake [6] | SMILES | Activity (HeLa)
1 | 0.69 | inactive | Dose-dependent effect | Nd(Insoluble) | Dose-dependent effect | – | Cc1cc(=O)oc2cc(Nc3c(Nc4ccc(N5CCOCC5)cc4)c(=O)c3=O)ccc12 | Active
2 | – | inactive | – | Nd(Insoluble) | – | Not Active | Cc1cc(=O)oc2cc(Nc3c(Nc4ccccc4)c(=O)c3=O)ccc12 | –
3 | 0.52 | inactive | Dose-dependent effect | 0.11 mol% | Dose-dependent effect | Active | O=c1cc(CN2CCOCC2)c2ccc(Nc3c(Nc4ccc(C(F)(F)F)cc4)c(=O)c3=O)cc2o1 | Active
4 | 0.08 | Active | Dose-dependent effect | 9.09 mol% | Dose-dependent effect | Active | O=c1cc(CN2CCOCC2)c2ccc(Nc3c(Nc4cc(C(F)(F)F)cc(C(F)(F)F)c4)c(=O)c3=O)cc2o1 | Active
